Results published in the NIST ThermoML archive (doi:10.1016/j.jct.2015.09.024).
± gives the expanded uncertainty stated by the source.

Conditions: Liquid, ATR infrared spectroscopy

SMILES: O=C=O [carbon dioxide]
- vapor or sublimation pressure (295.45 K): 6020 ± 490 kPa
- vapor or sublimation pressure (297.05 K): 6240 ± 500 kPa
- vapor or sublimation pressure (299.05 K): 6520 ± 530 kPa
- vapor or sublimation pressure (302.65 K): 7090 ± 570 kPa
- vapor or sublimation pressure (303.25 K): 7180 ± 580 kPa
